From US6497862B2, “Composition for inhibiting body odor and uses thereof” (Kabushiki Kaisha Hayashibara, priority 2000, dated 2002)

How the values were obtained:
[1] = Dispersion of 2-nonenal, GC of HSG (Experiment 4); settings: 10 mg 2-nonenal + 100 mg test saccharide, 80° C. 5 min (dispersion test); control 8.67
Description: Ten milligrams of 2-nonenal, 500 mg of a cellulose powder, and 1.25 ml of 0.12 M phosphate buffer (pH 6.0) were placed in a 20-ml glass vial. To the glass vial was added 100 mg of either of trehalose, maltitol and sucrose as a test saccharide, followed by sealing with a butyl rubber cap. As a control system, there provided a glass vial with no test saccharide that differed from the test systems only in this point. These glass vials were kept in a heat block, preheated to 80° C. After 5-min standing, the glass vials were sampled by two milliliters of HSG with a gas syringe. The content of 2-nonenal in the sampled HSG was measured by GC in accordance with the method in Experiment 2.

[2] = Panel test of smell, 9-hexadecanoic acid at 37° C. (Experiment 6); set-up: key: +++: the same or higher level of odor; ++: slightly lower level of odor; +: clearly lower level of odor than that of the control system; settings: 37° C., 9,000 lux
From the text: (§1) Upon the HSG samples, the level of a body-odor-like smell was examined on a panel test consisting of six professional panels; the panels directly smelled the samples from each glass vial and judged the level of the smells for each samples with test saccharides based on the following four ranks, i.e., the same or higher level of odor (+++), slightly lower level of odor (++), clearly lower level of odor (+), and odorless (−) as compared with the control system. Summing up the data from the panels, the samples tested were totally evaluated.
One hundred milligrams of 9-hexadecanoic acid as a fatty acid, 500 mg of a cellulose powder, and 1.25 ml of 0.12 M phosphate buffer (pH 6.0) were placed in a 20-ml glass vial. To the glass vial was added 100 mg of either of trehalose, maltitol and sucrose as a test saccharide, followed by sealing with a butyl rubber cap for use as a test system. As a control system, there provided a glass vial with no test saccharide that differed from the test systems only in this point. In both the test- and control-systems, they were respectively provided in doublet.
These glass vials were allowed to stand in a 37° C.-thermostatic-bath under the irradiation of 9,000 lux by a fluorescent lamp. At 3-days of standing, one of each pair of the vials containing the same composition, and 7-days of standing, the other vial of each resting pair of the vials were transferred to a heat block, which had been preheated to 80° C. and then kept therein for five minutes, followed by analyzing the content of 2-nonenal in HSG in each vial by GC similarly as in Experiment 2. After the collection of HSG, the smell from glass vials was evaluated by panel test in accordance with the method in Experiment 2.

[3] = Panel test of body-odor-like smell, oleic acid heated (Experiment 1); set-up: key: +++: the same or higher level of odor; ++: slightly lower level of odor; +: clearly lower level of odor than that of the control system; settings: oleic acid heated at 105° C. for one hour; six panels, compared with control system
Description: (§2) One hundred milligrams of oleic acid as a fatty acid, 500 mg of cellulose powder, and 1.25 ml of 0.12 M phosphate buffer (pH 6.0) were placed in a 20-ml glass vial. To the glass vial were added 100 mg of either of crystalline trehalose hydrate, crystalline maltitol anhydride, crystalline sorbitol anhydride, crystalline sucrose anhydride, crystalline maltose anhydride, and crystalline neotrehalose hydride as test saccharides (throughout Experiments 1 to 6, these saccharides are designated as “trehalose”, “maltitol”, sorbitol”, “sucrose”, “maltose”, and “neotrehalose”, respectively), followed by sealing the glass vial with a butyl rubber. As a control system, there provided a glass vial, with no a test saccharide, which differed from the test glass vial on this point. These glass vials were heated at 105° C. for one hour, cooled to ambient temperature, and kept in an aluminum heat-block (abbreviated as “heat block, hereinafter”), which had been preheated to 80° C. After 5-minutes standing, two milliliters of a head space gas (abbreviated as “HSG”, hereinafter) were collected from each glass vial with a syringe.
as §1

[4] = Formation of volatile aldehydes from oleic acid by heating, GC analysis of head space gas (Experiment 1); settings: oleic acid 100 mg + 100 mg test saccharide, heated at 105° C. for one hour; for Content in HSG, Hexanal: control 0.08; for Content in HSG, Butanal: control 1.04; for Content in HSG, Propanal: control 9.41
Description: as §2
(§3) The collected HSG was analyzed for content of volatile aldehydes on gas chromatography (abbreviated as “GC” hereinafter) using “GAS CHROMATOGRAPH GC-14A”, as a GC apparatus; “CAPILLARY COLUMN SUPELCO-WAX”, having 0.25 mm in inner diameter, 60 m in length, and 0.25 μm in thickness, commercialized by Supelco Inc., Tokyo, Japan, as a column for analysis; helium gas at a flow rate of one ml/min as a carrier gas, under temperature conditions of 250° C. for injecting a sample and of a column thermostatic bath temperature being kept at 80° C. for five minutes and then increased up to 240° C. at a rate of 5° C./min. As standard specimens, propanal, butanal, and hexanal as volatile aldehydes were used. Based on the peak area obtained from gas chromatography for the standard specimens and HSG samples, the content of respective volatile aldehydes in HSG was calculated.

[5] = Formation of 2-nonenal from 9-hexadecanoic acid by heating, GC of HSG (Experiment 3); settings: 9-hexadecanoic acid + 100 mg test saccharide, heated at 105° C. for one hour; control 25.7
Description: as §2, §3
The content of 2-nonenal in HSG was measured by GC similarly as in Experiment 1 except that 9-hexadecanoic acid or palmitoleic acid was used as a fatty acid and 2-nonenal, a volatile aldehyde, was used as a standard substance. The level of body-odor-like smell, particularly with respect to KAREI-SHU, in each sample was evaluated by panel test in accordance with the method in Experiment 1.

SMILES | Content of 2-nonenal in HSG [1] [µg/mL] | Evaluation of panel test ([2]; 3-days of standing) | Evaluation of panel test ([2]; 7-days of standing) | Evaluation of panel test [3] | Content in HSG, Hexanal [4] [µg/mL] | Content in HSG, Butanal [4] [µg/mL] | Content in HSG, Propanal [4] [µg/mL] | Content of 2-nonenal in HSG [5] [µg/mL]
OC[C@H]1O[C@@](CO)(O[C@H]2O[C@H](CO)[C@@H](O)[C@H](O)[C@H]2O)[C@@H](O)[C@@H]1O [Sucrose, sucrose] | 8.70 | ++ | +++ | +++ | 0.07 | 1.11 | 9.98 | 24.4
OC[C@@H](O)[C@@H](O[C@H]1O[C@H](CO)[C@@H](O)[C@H](O)[C@H]1O)[C@H](O)[C@@H](O)CO [Maltitol, maltitol] | 8.27 | – | + | ++ | 0.03 | 1.02 | 4.09 | 6.17
OC[C@H]1O[C@H](O[C@H]2O[C@H](CO)[C@@H](O)[C@H](O)[C@H]2O)[C@H](O)[C@@H](O)[C@@H]1O [Trehalose, trehalose] | 8.60 | – | + | + | 0.02 | 0.19 | 3.47 | 4.10
